Measurements as given in ChEMBL document CHEMBL3853265 (Medchemcomm, 2016).

Experiments:
[1] = Octanol-water partition co-efficient, log D of the compound by shake flask method; type: physicochemical
CYP2C9 = CYP2C9 (Homo sapiens, UniProt P11712); test: Inhibition of CYP2C9 (unknown origin) at 3 uM relative to control; type: ADME
[2] = biological target: T1, Solute carrier family 22 member 12 (Homo sapiens, UniProt Q96S37); test: Inhibition of human C-terminal eGFP-tagged URAT1 long isoform expressed in CHO cells assessed as decrease in [14C]-uric acid uptake preincubated for 15 mins followed by [14C]-uric acid addition and incubated in dark for 3 hrs by scintillation counting method; type: cell-based
T1 sequence (Q96S37 whole entry): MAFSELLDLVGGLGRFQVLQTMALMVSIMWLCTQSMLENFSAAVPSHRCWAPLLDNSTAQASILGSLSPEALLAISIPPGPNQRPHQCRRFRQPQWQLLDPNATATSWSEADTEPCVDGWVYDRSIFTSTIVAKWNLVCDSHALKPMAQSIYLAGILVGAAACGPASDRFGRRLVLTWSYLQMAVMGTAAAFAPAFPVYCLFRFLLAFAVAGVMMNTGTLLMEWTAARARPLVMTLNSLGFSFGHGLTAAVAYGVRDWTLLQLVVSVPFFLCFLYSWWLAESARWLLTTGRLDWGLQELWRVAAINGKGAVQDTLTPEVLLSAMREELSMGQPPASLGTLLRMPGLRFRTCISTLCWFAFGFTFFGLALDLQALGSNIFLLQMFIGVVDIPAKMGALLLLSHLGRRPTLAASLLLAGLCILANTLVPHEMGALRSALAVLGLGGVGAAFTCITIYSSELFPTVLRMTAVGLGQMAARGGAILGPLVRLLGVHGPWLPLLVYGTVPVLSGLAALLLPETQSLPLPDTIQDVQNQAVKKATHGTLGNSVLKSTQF

[3] = Intrinsic clearance in human liver microsomes; type: ADME; conditions: read-out: CLH
[4] = Dissociation constant, pKa of the compound; type: physicochemical

Chain of CYP2C9 (P11712 whole entry, canonical isoform): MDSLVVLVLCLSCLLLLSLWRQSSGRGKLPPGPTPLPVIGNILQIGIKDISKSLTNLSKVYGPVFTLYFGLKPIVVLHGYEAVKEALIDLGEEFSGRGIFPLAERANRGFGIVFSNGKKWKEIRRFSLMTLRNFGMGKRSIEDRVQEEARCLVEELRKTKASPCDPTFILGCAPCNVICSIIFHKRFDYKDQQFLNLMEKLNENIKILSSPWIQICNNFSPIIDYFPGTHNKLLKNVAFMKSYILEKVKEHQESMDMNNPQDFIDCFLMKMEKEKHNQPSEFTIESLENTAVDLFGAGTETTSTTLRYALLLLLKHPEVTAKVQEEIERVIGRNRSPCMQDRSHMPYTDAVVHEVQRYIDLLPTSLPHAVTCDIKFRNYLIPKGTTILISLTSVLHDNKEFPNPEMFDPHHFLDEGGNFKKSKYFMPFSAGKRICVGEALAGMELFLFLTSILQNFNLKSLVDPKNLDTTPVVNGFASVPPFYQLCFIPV

logD [1]	inhibition at 3 µM (CYP2C9) [%]	IC50 [2] [µM]	microsomal CLint [3] [µL/min/mg]	pKa [4]	SMILES
0.8	11	0.616	19	–	N#Cc1ccccc1NS(=O)(=O)c1ccccc1C(F)(F)F
–	–	0.187	–	–	N#Cc1ccc(Cl)cc1NS(=O)(=O)c1ccccc1C(F)(F)F
–	–	0.111	–	–	N#Cc1cc(Cl)ccc1NS(=O)(=O)c1ccccc1C(F)(F)F
–	–	1.97	–	–	O=S(=O)(Nc1ccccc1OC(F)F)c1ccccc1C(F)(F)F
–	–	1.97	–	–	O=S(=O)(Nc1ccc(F)c(F)c1)c1ccccc1C(F)(F)F
2.3	76	0.018	< 12	5.8	N#Cc1cc(NS(=O)(=O)c2ccccc2C(F)(F)F)ccc1Cl
–	–	0.071	–	–	N#Cc1ccc(Cl)c(NS(=O)(=O)c2ccccc2C(F)(F)F)c1
1.9	28	0.166	< 8	–	N#Cc1cccc(NS(=O)(=O)c2ccccc2C(F)(F)F)c1
–	–	0.02	–	–	N#Cc1cc(NS(=O)(=O)c2ccccc2OC(F)(F)F)ccc1Cl
2	86	0.032	18	5.1	N#Cc1cc(NS(=O)(=O)c2ccccc2C(F)(F)F)ccc1C(F)(F)F
–	–	1.03	–	–	Cc1ccc(NS(=O)(=O)c2ccccc2C(F)(F)F)cn1
–	–	0.484	–	–	O=S(=O)(Nc1ccc(F)c(C(F)(F)F)c1)c1ccccc1C(F)(F)F
2.4	15	3.61	–	–	O=S(=O)(Nc1ccccc1F)c1ccccc1C(F)(F)F
–	–	3.92	–	–	COc1ncccc1NS(=O)(=O)c1ccccc1C(F)(F)F
1	86	0.023	30	–	N#Cc1c(Cl)cccc1NS(=O)(=O)c1ccccc1C(F)(F)F
–	–	> 10	–	–	COc1ccncc1NS(=O)(=O)c1ccccc1C(F)(F)F
1.6	38	0.035	14	5.3	O=S(=O)(Nc1cncc(Br)c1)c1ccccc1C(F)(F)F
1.1	82	0.039	14	–	N#Cc1ccc(NS(=O)(=O)c2ccccc2C(F)(F)F)c(Cl)c1
–	–	0.119	–	–	N#Cc1ccc(NS(=O)(=O)c2ccccc2C(F)(F)F)cc1
–	–	> 10	–	–	Cc1ccncc1NS(=O)(=O)c1ccccc1C(F)(F)F

Continued, compound first:

SMILES	logD [1]	inhibition at 3 µM (CYP2C9) [%]	IC50 [2] [µM]	microsomal CLint [3] [µL/min/mg]	pKa [4]
O=S(=O)(Nc1cnc2ccccc2c1)c1ccccc1C(F)(F)F	2.5	39	0.007	153	–
N#Cc1ccc(NS(=O)(=O)c2ccccc2C(F)(F)F)cc1C(F)(F)F	1.8	61	0.029	< 12	–
N#Cc1ccc(NS(=O)(=O)c2ccccc2C(F)(F)F)cc1Cl	1.8	92	0.018	11	5.1
Cc1ccccc1S(=O)(=O)Nc1ccc(C#N)c(Cl)c1	–	–	0.089	–	–
COc1ccccc1S(=O)(=O)Nc1ccc(C#N)c(Cl)c1	–	–	0.199	–	–
O=S(=O)(Nc1cccc(OC(F)(F)F)c1)c1ccccc1C(F)(F)F	3.9	81	1.48	55	–
Cc1cncc(NS(=O)(=O)c2ccccc2C(F)(F)F)c1	–	–	0.185	–	–
COc1cncc(NS(=O)(=O)c2ccccc2C(F)(F)F)c1	1.3	18	0.089	< 8	–
N#Cc1cc(NS(=O)(=O)c2ccccc2C#N)ccc1Cl	–	–	0.127	–	–
N#Cc1cc(NS(=O)(=O)c2ccccc2Cl)ccc1Cl	–	–	0.081	–	–
N#Cc1ccc(NS(=O)(=O)c2ccccc2Cl)cc1Cl	–	–	0.081	–	–
N#Cc1ccc(NS(=O)(=O)c2ccccc2C#N)cc1Cl	–	–	0.156	–	–
Cc1ccccc1S(=O)(=O)Nc1ccc(Cl)c(C#N)c1	–	–	0.183	–	–
COc1ccc(NS(=O)(=O)c2ccccc2C(F)(F)F)cn1	–	–	1.17	–	–
